Test results from patent publication US20070117743A1, “New antitumoral compounds” (priority 2003, published 2007).
Where a SMILES comes first, the peptide text is derived from it. Bridges are numbered along the chain shown (N, C = ends). [ ]: non-standard residue; d: D form. The star is where a group is joined. d(aIle) = CC[C@H](C)[C@@H](N)C(=O)O; d(aThr) = C[C@@H](O)[C@@H](N)C(=O)O; hCha = N[C@@H](CCC1CCCCC1)C(=O)O; Hexanoyl(5-Me) = CC(C)CCCC(=O)*; dCha = N[C@H](CC1CCCCC1)C(=O)O; Orn = NCCC[C@H](N)C(=O)O; Dhb = C/C=C(\N)C(=O)O

Experiments:
Assay type in all cases: cell-based, human
SK-BR-3 = experiment: SRB colorimetric assay of cell growth and viability, SK-BR-3; conditions: 48 hours exposure
HeLa-APL = experiment: SRB colorimetric assay of cell growth and viability, HeLa-APL; conditions: 48 hours exposure; for CC50: read-out: LC50 HELA-APL
IGROV-ET = experiment: SRB colorimetric assay of cell growth and viability, IGROV-ET; conditions: 48 hours exposure; for CC50: read-out: LC50 IGROV-ET
LoVo-Dox = experiment: SRB colorimetric assay of cell growth and viability, LoVo-Dox; conditions: 48 hours exposure; for CC50: read-out: LC50 LOVO-DOX
Summary of the method: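 First, 5×10^3 cells per well attach for 18 hours in RPMI 1640 with 10% FBS at 37° C and 5% CO2. Next, samples spanning 10 to 10^−8 μg/mL are added for 48 hours. Finally, cells are fixed with TCA, stained with SRB for 10 minutes and read at 490 nm.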

K-562 = experiment: SRB colorimetric assay of cell growth and viability, K-562; conditions: 48 hours exposure; for CC50: read-out: LC50 K-562
IGROV-1 = experiment: SRB colorimetric assay of cell growth and viability, IGROV-1; conditions: 48 hours exposure
LoVo = experiment: SRB colorimetric assay of cell growth and viability, LoVo; conditions: 48 hours exposure; for CC50: read-out: LC50 LOVO
PANC-1 = experiment: SRB colorimetric assay of cell growth and viability, PANC-1; conditions: 48 hours exposure
DU-145 = experiment: SRB colorimetric assay of cell growth and viability, DU-145; conditions: 48 hours exposure
A-549 = experiment: SRB colorimetric assay of cell growth and viability, A-549; conditions: 48 hours exposure; for GI50: read-out: GI50 A-549; for CC50: read-out: LC50 A-549
SK-MEL-28 = experiment: SRB colorimetric assay of cell growth and viability, SK-MEL-28; conditions: 48 hours exposure; for CC50: read-out: LC50 MEL-28
LNCaP = experiment: SRB colorimetric assay of cell growth and viability, LNCaP; conditions: 48 hours exposure; for GI50: read-out: GI50 LN-caP; for CC50: read-out: LC50 LN-caP
HeLa = experiment: SRB colorimetric assay of cell growth and viability, HeLa; conditions: 48 hours exposure; for CC50: read-out: LC50 HELA
HT-29 = experiment: SRB colorimetric assay of cell growth and viability, HT-29; conditions: 48 hours exposure; for GI50: read-out: GI50 HT-29; for CC50: read-out: LC50 HT-29

## C/C=C1\NC(=O)[C@H](Cc2ccccc2)NC(=O)[C@@H](C(C)C)NC(=O)[C@@H]([C@@H](C)CC)NC(=O)[C@H](NC(=O)[C@H](NC(=O)[C@H](CCCN)NC(=O)[C@H]2CCCN2C(=O)[C@H](NC(=O)[C@@H](NC(=O)[C@@H](NC(=O)[C@H](NC(=O)CCCC(C)C)C(C)C)[C@@H](C)O)C(C)C)C(C)C)[C@@H](C)CC)[C@H](C)OC(=O)[C@H](C(C)C)NC1=O [Compound 2, [D-Thr^6]-KF]
SK-BR-3
  GI50: 4470 nM
  LC50: ≥ 6.77 µM
  TGI SK-BR-3: 6.77E−06 Molar
HeLa-APL
  GI50: ≥ 6.77 µM
  TGI HELA-APL: 6.77E−06 Molar
  CC50: ≥ 6.77 µM
IGROV-ET
  GI50: 1600 nM
  TGI IGROV-ET: 3.80E−06 Molar
  CC50: ≥ 6.77 µM
LoVo-Dox
  GI50: 3060 nM
  TGI LOVO-DOX: 6.77E−06 Molar
  CC50: ≥ 6770 nM
K-562
  GI50: ≥ 6.77 µM
  TGI K-562: 6.77E−06 Molar
  CC50: ≥ 6.77 µM
IGROV-1
  GI50: 1990 nM
  LC50 (concentration causing 50% net cell killing): ≥ 6.77 µM
  TGI IGROV: 5.33E−06 Molar
LoVo
  GI50: ≥ 6770 nM
  TGI LOVO: 6.77E−06 Molar
  CC50: ≥ 6.77 µM
PANC-1
  GI50: ≥ 6.77 µM
  TGI PANC-1: 6.77E−06 Molar
PANC-1; read-out: LC50 PANC-1
  CC50: ≥ 6.77 µM
DU-145
  GI50: 5.29 µM
  LC50 (concentration causing 50% net cell kill): ≥ 6.77 µM
  TGI DU-145: 6.77E−06 Molar
A-549
  TGI A-549: 6.77E−06 Molar
  GI50: ≥ 6.77 µM
  CC50: ≥ 6.77 µM
SK-MEL-28
  GI50: ≥ 6.77 µM
  TGI MEL-28: 6.77E−06 Molar
  CC50: ≥ 6.77 µM
LNCaP
  TGI LN-caP: 6.77E−06 Molar
  GI50: 2.13 µM
  CC50: ≥ 6.77 µM
HeLa
  GI50: ≥ 6770 nM
  TGI HELA: 6.77E−06 Molar
  CC50: ≥ 6.77 µM
HT-29
  TGI HT-29: 6.77E−06 Molar
  GI50: ≥ 6770 nM
  CC50: ≥ 6.77 µM

## C/C=C1\NC(=O)[C@H](Cc2ccccc2)NC(=O)[C@@H](C(C)C)NC(=O)[C@@H]([C@@H](C)CC)NC(=O)[C@H](NC(=O)[C@H](NC(=O)[C@H](CCCN)NC(=O)[C@H]2CCCN2C(=O)[C@H](NC(=O)[C@H](CCC2CCCCC2)NC(=O)[C@@H](NC(=O)[C@@H](CC2CCCCC2)NC(=O)CCCC(C)C)[C@@H](C)O)C(C)C)[C@@H](C)CC)[C@@H](C)OC(=O)[C@H](C(C)C)NC1=O [Compound 10, [hCh^11, D-Cha^13]-KF] ({Hexanoyl(5-Me)}-[dCha]T[hCha][dV][dP][Orn][d(aIle)][d(aThr)][d(aIle)][dV]F[Dhb]V; ester 8-C)
SK-BR-3
  GI50: 1310 nM
  LC50: 4.16 µM
  TGI SK-BR-3: 2.32E−06 Molar
HeLa-APL
  GI50: 3.67 µM
  TGI HELA-APL: 6.25E−06 Molar
  CC50: 6.25 µM
IGROV-ET
  GI50: 2230 nM
  TGI IGROV-ET: 4.56E−06 Molar
  CC50: 6.25 µM
LoVo-Dox
  GI50: 537 nM
  TGI LOVO-DOX: 1.30E−06 Molar
  CC50: 2940 nM
K-562
  GI50: 6.25 µM
  TGI K-562: 6.25E−06 Molar
  CC50: 6.25 µM
IGROV-1
  GI50: 1990 nM
  LC50 (concentration causing 50% net cell killing): 6.25 µM
  TGI IGROV: 3.84E−06 Molar
LoVo
  GI50: 1120 nM
  TGI LOVO: 2.27E−06 Molar
  CC50: 4.59 µM
DU-145
  GI50: 4.29 µM
  LC50 (concentration causing 50% net cell kill): 6.25 µM
  TGI DU-145: 6.25E−06 Molar
A-549
  TGI A-549: 6.25E−06 Molar
  GI50: 3.56 µM
  CC50: 6.25 µM
SK-MEL-28
  GI50: 3.1 µM
  TGI MEL-28: 6.25E−06 Molar
  CC50: 6.25 µM
LNCaP
  TGI LN-caP: 6.25E−06 Molar
  GI50: 4.89 µM
  CC50: 6.25 µM
HeLa
  GI50: 2670 nM
  TGI HELA: 6.25E−06 Molar
  CC50: 6.25 µM
HT-29
  TGI HT-29: 1.96E−06 Molar
  GI50: 1060 nM
  CC50: 3.58 µM
